In patent publication US9765297B2, “Stem cell-based culture system for drug development” (THE TRUSTEES OF COLUMBIA UNIVERSITY IN THE CITY OF NEW YORK, priority 2007, dated 2017):
Entries after “also recorded” stand apart in the source; their conditions may differ. Where a SMILES comes first, the peptide text is derived from it. The star is where a group is joined. Cbz = O=C(OCc1ccccc1)*; CH2F = FC*

Key:
[1] = tested on: motor neurons on mutant SOD1 astrocyte layer; test: Motor neuron / mutant SOD1 astrocyte co-cultures incubated with CNQX or Fas-Fc (FIG. 11c,d); assay type: cell-based, mouse; conditions: 100 μM CNQX
Protocol: FIG. 11a-e. Glutamate, Fas ligand and several major cytokines and chemokines are not involved in the toxicity of mutant SOD1 astrocytes to motor neurons. […] (b) 14 d-old-confluent ^NTgAML or ^G93AAML were incubated with 200 μM of glutamate. Then, the extracellular concentration of glutamate was monitored by HPLC at 0, 0.5, 1, 3, 6 and 24 hr. No interaction was found between the timing of glutamate decrease in the medium and the genotypes of the two astrocyte layers (F[2.241]=0.430; P=0.826; ANOVA). […] (e) The relative contents of 19 cytokines/chemokines were screened by array in CMd from G93A and NTg astrocytes. The genotypic differences were highlighted in bold. […]
Results are expressed as mean±standard error of the mean (s.e.m.) for 3-6 independent experiments. […] Each coverslip was counted at ×100 under fluorescent examination in its entirety. To determine the proportion of dying or apoptotic neurons, ≧750 MAP2^+ neurons were counted per culture. Differences between means were analyzed by a two-tailed Student's t-test whereas among means by one- or two-way ANOVA with the different types of mice, treatment doses, or time as the independent factors. […] For morphometry studies, differences were analyzed by Kolmogorov-Smimov test (www.physics.csbsju.edu/stats/KS-test.n.plot_form.html). […]

ESMN plated on G93A AML = test: Co-culture of embryonic stem cell-derived motor neurons (ESMN) on mutant SOD1 G93A astrocyte monolayers with pharmacological treatment; survival and death counted at 7 d; assay type: cell-based, mouse; conditions: 7 d post-plating, V5 50-200 μM, zVAD-fmk 10-20 μM; for percentages of surviving ESMN: ESMN on G93A AML, vs vehicle; for percentages of ESMN / MAP2+ neurons labeled with EthD (dying cells) / percentages of embryonic stem cell-derived MAP2+/fractin+ neurons (apoptosis): G93A AML co-cultures, vs vehicle (DMSO), added daily
Protocol: Glial monolayers were prepared from spinal cord from transgenic SOD^G93A, SOD^G37R, SOD^G85R, SOD^WT of newborn pups as described by Silva and collaborators^31. Cell suspensions were plated in glial medium: Dubelco Modified Eagle's medium (DMEM; Invitrogen, Carlsbad, Calif.) containing 10% fetal bovine serum (FBS; Invitrogen), 100 U/mL penicillin and 100 μg/mL streptomycin (penicillin/streptomycin, Invitrogen). After 2 weeks, glial cultures contained 95% of glial acidic fibrillary protein (GFAP)^+ astrocytes, 5% of CD11b^+ microglia, and no neuron or oligodendrocyte as indicated by the lack of respectively MAP2 or 2′-3′-cyclic nucleotide phosphohydrolase immunoreactivity (data not shown). To eliminate residual microglia, 2-week-old flasks were agitated (200 rpm; 6 h) and astrocytes were detached by 0.25% trypsin (Invitrogen) and plated onto coverslips at a density of 20,000 cells/cm^2.
Cells were derived from Hlxb9-GFP1Tmj transgenic mice^13 and differentiated into ESMN as described previously^13. To form EBs, cells were grown for 2 d in 1:1 (v/v) DMEM/Ham's F-12 media (Invitrogen) medium containing B27 supplement (Invitrogen), penicillin/streptomycin and 0.1 mM β-mercaptoethanol (Sigma, Saint Louis, Mo.). They were treated with 1 μM retinoic acid (Sigma) and 400 nM sonic hedgehog agonist (Hh-Ag1.3, Curls Inc., Cambridge, Mass.) for 5 d and dissociated with papain (Worthington, Lakewood, N.J.). Cells were plated at 1,600 eGFP-positive cells/cm^2 in motor neuron medium: Neurobasal medium (Invitrogen) containing 2% horse serum (heat inactivated; Invitrogen), B27 supplement, 0.5 mM glutamine (Invitrogen), 25 μM β-mercaptoethanol, penicillin/streptomycin. To obtain LH2-positive neurons, once EBs were formed they were treated with 0.1 μM retinoic acid and 15 ng/mL bone morphogenetic protein 4 (R&D systems, Minneapolis, Minn.) for 5 d before papain dissociation. Then, 1,500 cells/cm^2 were plated onto astrocyte monolayer in motor neuron medium.
For EthD (Molecular Probes) estimation of death, cells were incubated with 2 μM EthD (diluted in D-PBS; 45 min; RT) as we previously reported^36. For immunocytochemistry and the other cell labelings, cells were processed as we previously described^36. Primary antibodies used were: rabbit polyclonal anti-eGFP (1:2000; Molecular Probes), anti-fractin (1:5000; BD Pharmingen, San Jose, Calif.), GABA (1:2000; Chemicon), anti-Lim2 (1:150; from Dr. Jessell's lab), and anti-HB9 (1:1000 from T M Jessell's lab); goat polyclonal anti-ChAT (1:100; Chemicon, Temecula, Calif.); sheep polyclonal anti-SOD1 (1:500; Calbiochem), rabbit anti-protein gene product 9.5 (PG-P 9.5; 1:2000; Chemicon) and mouse monoclonal anti-MAP-2 (1:1000; Chemicon), anti-GFAP (1:1000; Sigma), anti-Islet 1/2 (1:100; from TM Jessell's lab), anti-LH2 (1:2; from T M Jessell's lab), and anti-SMI-32 for non-phosphorylated neurofilament heavy chain (1:1000, Sternberger monoclonals, Lutherville, Md.). Terminal deoxy-UTP nick-end labeling (Tunel, in situ cell death detection kit, Roche Diagnostic, Indianapolis, Ind.) were performed following the manufacturer's recommendations.
zVAD-fmk and V5 (Sigma) were dissolved in DMSO and add to co-cultures to final concentrations ranging from 10-20 μM for the former and 50-200 μM for the latter. Fresh drugs were added daily. Cell survival and death were evaluated at 7 d by counting eGFP^+/HB9^+ neurons, and EthD- and fractin-labeled cells as described below.
Results are expressed as mean±standard error of the mean (s.e.m.) for 3-6 independent experiments. Each experiment corresponds ≧3 transgenic and non-transgenic co-cultures from the same litter and 3 coverslips per time point and per condition. Each coverslip was counted at ×100 under fluorescent examination in its entirety. To determine the proportion of dying or apoptotic neurons, ≧750 MAP2^+ neurons were counted per culture. […]

| Compound | mutant SOD1 astrocyte-mediated motor neuron death [1] | percentages of surviving ESMN (ESMN plated on G93A AML) | percentages of surviving ESMN (ESMN plated on G93A AML; listed as zVAD.fmk) | percentages of ESMN / MAP2+ neurons labeled with EthD (dying cells) (ESMN plated on G93A AML) | percentages of embryonic stem cell-derived MAP2+/fractin+ neurons (apoptosis) (ESMN plated on G93A AML) |
| --- | --- | --- | --- | --- | --- |
| N#Cc1cc2[nH]c(=O)c(=O)[nH]c2cc1[N+](=O)[O-] [CNQX] | did not influence | – | – | – | – |
| COC(=O)C[C@H](NC(=O)[C@H](C)NC(=O)[C@@H](NC(=O)OCc1ccccc1)C(C)C)C(=O)CF [zVAD-fmk] (Cbz-Val-Ala-Asp(OMe)-CH2F) | – | failed to improve | had no effect | had no effect | decreased |
| VPMLK [V5] | – | augmented; also recorded: increases | – | diminished; also recorded: decreases | reduced specifically; also recorded: decreases; also recorded: inhibited apoptosis |
